In the supplement of paper PMC10307832:

Columns and labels:
Assay in all cases: relative viability (nuclei count vs DMSO), 5 days (fraction); higher = more cells survive
[1] = compound: CN(C)CC1=CC(=CC=C1)N=C(C2=CC=CC=C2)C3=C(NC4=C3C=CC(=C4)C(=O)N(C)C)O + C[C@]1(O)C[C@@H](c2nc(-c3ccc4ccc(-c5ccccc5)nc4c3)c3c(N)nccn32)C1 [Linsitinib] (partner 1 µM)
Outline: (§1)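 Relative viability equals treated-well nuclei counts divided by vehicle-well nuclei counts. Counts came from 4× images of lung cancer cell lines grown in 1536-well plates for 5 days after pin-tool dosing on the day after seeding. Dosing used one drug alone or a fixed anchor-drug dose plus five library-drug doses (not always all listed) in √10 steps, and values are medians of duplicate plates.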

[2] = compound: CN(C)CC1=CC(=CC=C1)N=C(C2=CC=CC=C2)C3=C(NC4=C3C=CC(=C4)C(=O)N(C)C)O + CC1(C)CCC(c2ccc(Cl)cc2)=C(CN2CCN(c3ccc(C(=O)NS(=O)(=O)c4ccc(N[C@H](CCN5CCOCC5)CSc5ccccc5)c(S(=O)(=O)C(F)(F)F)c4)cc3)CC2)C1 [Navitoclax] (partner 0.5 µM)
Outline: as §1

[3] = compound: CN(C)CC1=CC(=CC=C1)N=C(C2=CC=CC=C2)C3=C(NC4=C3C=CC(=C4)C(=O)N(C)C)O + O=C(CCCCCCC(=O)Nc1ccccc1)NO [Vorinostat] (partner 1 µM)
Outline: as §1

[4] = compound: CN(C)CC1=CC(=CC=C1)N=C(C2=CC=CC=C2)C3=C(NC4=C3C=CC(=C4)C(=O)N(C)C)O + Nc1nc2[nH]cc(CCc3ccc(C(=O)N[C@@H](CCC(=O)O)C(=O)O)cc3)c2c(=O)[nH]1 [Pemetrexed] (partner 0.2 µM)
Outline: as §1

| Cell Line | relative viability ([1]; first compound 0.08 µM) | relative viability ([1]; first compound 0.253 µM) | relative viability ([1]; first compound 0.8 µM) | relative viability ([1]; first compound 2.53 µM) | relative viability ([1]; first compound 8 µM) | relative viability ([2]; first compound 0.08 µM) | relative viability ([2]; first compound 0.253 µM) | relative viability ([2]; first compound 0.8 µM) | relative viability ([2]; first compound 2.53 µM) | relative viability ([2]; first compound 8 µM) | relative viability ([3]; first compound 0.08 µM) | relative viability ([3]; first compound 0.253 µM) | relative viability ([3]; first compound 0.8 µM) | relative viability ([3]; first compound 2.53 µM) | relative viability ([3]; first compound 8 µM) | relative viability ([4]; first compound 0.08 µM) | relative viability ([4]; first compound 0.253 µM) | relative viability ([4]; first compound 0.8 µM) | relative viability ([4]; first compound 2.53 µM) | relative viability ([4]; first compound 8 µM) |
| --- | --- | --- | --- | --- | --- | --- | --- | --- | --- | --- | --- | --- | --- | --- | --- | --- | --- | --- | --- | --- |
| NCI-H3122 | 1.08 | 1.05 | 1.08 | 0.972 | 1.05 | 1.01 | 1.01 | 1.06 | 1.03 | 1.04 | 0.966 | 0.947 | 1.17 | 0.905 | 0.898 | 0.19 | 0.207 | 0.196 | 0.191 | 0.186 |
| PC-3 [JPC-3] | 0.985 | 0.907 | 0.883 | 0.967 | 1.06 | 0.787 | 0.703 | 0.643 | 0.84 | 0.843 | 0.853 | 0.834 | 0.682 | 0.883 | 1.03 | 1.08 | 1.04 | 0.665 | 1.08 | 1.28 |
| PC-14 | 0.98 | 0.954 | 0.96 | 0.874 | 0.998 | 1.08 | 1.03 | 0.965 | 1.03 | 1.07 | 0.576 | 0.675 | 0.833 | 0.687 | 0.592 | 0.13 | 0.13 | 0.147 | 0.15 | 0.135 |
| RERF-LC-KJ | 0.912 | 0.93 | 0.81 | 0.948 | 0.87 | 1.06 | 0.645 | 0.833 | 1.03 | 0.866 | 0.744 | 0.703 | 0.605 | 0.64 | 0.681 | 0.473 | 0.453 | 0.491 | 0.443 | 0.499 |
| SK-LU-1 | 1.05 | 1.2 | 1.27 | 1.17 | 0.77 | 1.05 | 0.898 | 0.778 | 0.651 | 0.791 | 0.796 | 0.861 | 0.735 | 0.847 | 0.581 | 1.01 | 0.941 | 1.03 | 0.961 | 0.781 |
| SK-MES-1 | 1.1 | 1 | 1.07 | 0.918 | 0.988 | 1.25 | 1.26 | 1.09 | 1.15 | 1.1 | 1.13 | 1.08 | 1.08 | 1.01 | 1.03 | 0.961 | 0.881 | 1 | 0.89 | 0.897 |
| SW 1573 | 0.735 | 0.829 | 0.731 | 0.73 | 0.731 | 1.01 | 0.822 | 0.844 | 0.906 | 1.01 | 0.616 | 1.08 | 0.958 | 0.744 | 0.55 | 0.823 | 0.83 | 0.987 | 0.792 | 0.768 |
| UMC-11 | 1.01 | 0.986 | 0.985 | 0.999 | 0.926 | 0.357 | 0.269 | 0.264 | 0.328 | 0.32 | 0.318 | 0.399 | 0.41 | 0.364 | 0.34 | 0.779 | 0.752 | 0.839 | 0.714 | 0.736 |
